Laboratory results as given in US8791100B2 (Novartis AG, priority 2010, dated 2014).

biological target: human S1P1 receptors (Homo sapiens (Human), UniProt P21453); assay: Human S1P1 Receptor Calcium FLIPR Antagonist Assay (HeLa Gα16 S1P1); type: cell-based; conditions: relative antagonism vs probing agonist GNF-AC-1 at EC80, HeLa-S1P1/Gα16 cells
Source text: Human S1P1 Receptor Calcium FLIPR Antagonist Assay
The assay measures intracellular changes of Ca^2+ mediated by the synthetic probing agonist 3-{[2-(2-Trifluoromethyl-biphenyl-4-yl)-benzo[b]thiophen-5-ylmethyl]-amino}-propionic acid (GNF-AC-1) in the HeLa-S1P1/Gα16 cell clone 1: HeLa (human cervix carcinoma, ATCC CCL2) cells stably expressing N-terminally myc-tagged human S1P1 receptors (GenBank™ accession No. NM_001400; UNIPROT P21453) and promiscuous Gα16 protein (GenBank™ accession number M63904, Swissprot P30679) are cultured at 37° C., 5% CO2, and 95% relative humidity. The cells are plated in 384 well black plates (10′000 cells per well). After 24 hours the cells are loaded with Fluo-4-AM (1.6 μM in HBSS and 2.5 mM probenicid) for 1 hour at 37° C. After washing, the cells are transferred to the FLIPR. The test compounds are added at different concentrations (≦100 μM) in HBSS in the presence of 0.1% BSA and changes in fluorescence are recorded (indication of agonism). The probing agonist is added 20-30 minutes afterwards to the wells at a concentration giving 80% of the maximal activity (EC80). After each addition, time points are collected as follows: 20 time points (2 seconds) before the addition of the agonist (Fmin) and 60 time points (1 or 2 seconds) after the addition of the probing agonist. This allows the determination of the maximal fluorescence (Fmax). The ratio (Fmax−Fmin)/Fmin is plotted against the log of the concentration of the test compounds and the IC50 (relative antagonism) is calculated using the XLfit-4 software. […] A concentration-response curve of the probing agonist is determined on each plate in parallel.

human S1P1 receptors, sequence (P21453 whole entry): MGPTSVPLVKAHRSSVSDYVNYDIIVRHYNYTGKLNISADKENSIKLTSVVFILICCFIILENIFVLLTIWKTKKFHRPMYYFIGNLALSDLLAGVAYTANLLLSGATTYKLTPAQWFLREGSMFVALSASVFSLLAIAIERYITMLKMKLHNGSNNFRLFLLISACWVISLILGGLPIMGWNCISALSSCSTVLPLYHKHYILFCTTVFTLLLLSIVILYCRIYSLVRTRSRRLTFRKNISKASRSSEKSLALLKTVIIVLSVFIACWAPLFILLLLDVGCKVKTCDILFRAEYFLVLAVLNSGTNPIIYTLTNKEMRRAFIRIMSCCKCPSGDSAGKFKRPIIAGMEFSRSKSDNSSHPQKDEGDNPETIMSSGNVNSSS

IC50 [nM] | SMILES
0.9 | CC[C@@H](Nc1cc(CN2CC(C(=O)O)C2)c(F)cn1)c1ccc(Cl)c(C)c1 [Example 54, 1-{2-[(R)-1-(4-Chloro-3-methyl-phenyl)-propylamino]-5-fluoro-pyridin-4-ylmethyl}-azetidine-3-carboxylic acid]
0.9 | CC[C@@H](Nc1cccc(CN2CC(C(=O)O)C2)c1)c1ccc(Cl)c(C)c1 [Example 3, 1-{3-[(R)-1-(4-Chloro-3-methyl-phenyl)-propylamino]-benzyl}-azetidine-3-carboxylic acid]
24.5 | CC[C@@H](Nc1ccc(C)c(CNCC(C)(C)C(=O)O)c1)c1cc(C)c(Cl)c(C)c1 [Example 80, 3-{5-[(R)-1-(4-Chloro-3,5-dimethyl-phenyl)-propylamino]-2-methyl-benzylamino}-2,2-dimethyl-propionic acid]
0.8 | CC[C@@H](Nc1ccnc(CN2CC(C(=O)O)C2)c1)c1ccc(Cl)c(C)c1 [Example 78, 1-{4-[(R)-1-(4-Chloro-3-methyl-phenyl)-propylamino]-pyridin-2-ylmethyl}-azetidine-3-carboxylic acid]
10.6 | CC[C@@H](Nc1cc(CN2CC[C@@H](C(=O)O)C2)ccc1F)c1ccc(Cl)c(C)c1 [Example 27, (R)-1-{3-[(R)-1-(4-Chloro-3-methyl-phenyl)-propylamino]-4-fluoro-benzyl}-pyrrolidine-3-carboxylic acid]
1.5 | CC[C@@H](Nc1cccc(CN2CC(C)(C(=O)O)C2)c1)c1ccc(Cl)c(C)c1 [Example 8, 1-{3-[(R)-1-(4-Chloro-3-methyl-phenyl)-propylamino]-benzyl}-3-methyl-azetidine-3-carboxylic acid]
0.6 | CC[C@@H](Nc1cc(CN2CC(C(=O)O)C2)c(Cl)cn1)c1ccc(Cl)c(C)c1 [Example 79, 1-{5-Chloro-2-[(R)-1-(4-chloro-3-methyl-phenyl)-propylamino]-pyridin-4-ylmethyl}-azetidine-3-carboxylic acid]
1.3 | Cc1cc([C@@H](C)Nc2ccc(Cl)c(CN3CC[C@@H](C(=O)O)C3)c2)cc(C)c1Cl [Example 46, (R)-1-{2-Chloro-5-[(R)-1-(4-chloro-3,5-dimethyl-phenyl)-ethylamino]-benzyl}-pyrrolidine-3-carboxylic acid]
0.4 | CCC(Nc1cc(C)cc(CN2CC(C(=O)O)C2)c1)c1ccc(Cl)c(C)c1 (centres unmarked) [Example 9, 1-{3-[1-(4-Chloro-3-methyl-phenyl)-propylamino]-5-methyl-benzyl}-azetidine-3-carboxylic acid]
2.1 | CC[C@@H](Nc1cc(CN2CC(C(=O)O)C2)ccc1F)c1ccc(Cl)c(C)c1 [Example 26, 1-{3-[(R)-1-(4-Chloro-3-methyl-phenyl)-propylamino]-4-fluoro-benzyl}-azetidine-3-carboxylic acid]
0.8 | CC[C@@H](Nc1ccc(C)c(CN2CC(C)(C(=O)O)C2)c1)c1ccc(Cl)c(C)c1 [Example 28, 1-{5-[(R)-1-(4-Chloro-3-methyl-phenyl)-propylamino]-2-methyl-benzyl}-3-methyl-azetidine-3-carboxylic acid]
0.8 | Cc1cc([C@H](Nc2ccc(C(F)(F)F)c(CN3CC(C(=O)O)C3)c2)C(F)(F)F)ccc1Cl [Example 69, 1-{5-[(S)-1-(4-Chloro-3-methyl-phenyl)-2,2,2-trifluoro-ethylamino]-2-trifluoromethyl-benzyl}-azetidine-3-carboxylic acid]
1.5 | CCC(Nc1cccc(CN2CC[C@@H](C(=O)O)C2)c1C)c1ccc(Cl)c(C)c1 (stereo partly drawn) [Example 14, (R)-1-{3-[1-(4-Chloro-3-methyl-phenyl)-propylamino]-2-methyl-benzyl}-pyrrolidine-3-carboxylic acid]
2.4 | CC[C@@H](Nc1ccc(C)c(CNC[C@@H](C)C(=O)O)c1)c1cc(C)c(Cl)c(C)c1 [Example 49, (R)-3-(5-[(R)-1-(4-Chloro-3,5-dimethyl-phenyl)-propylamino)-2-methyl-benzylamino]-2-methyl-propionic acid]
2.3 | CCC(Nc1cc(C)cc(CN2CC[C@@H](C(=O)O)C2)c1)c1ccc(Cl)c(C)c1 (stereo partly drawn) [Example 15, (R)-1-{3-[1-(4-Chloro-3-methyl-phenyl)-propylamino]-5-methyl-benzyl}-pyrrolidine-3-carboxylic acid]
1.1 | Cc1cc([C@H](Nc2ccc(Cl)c(CN3CCC(C(=O)O)C3)c2)C(F)(F)F)ccc1Cl (stereo partly drawn) [Example 72, 1-{2-Chloro-5-[(S)-1-(4-chloro-3-methyl-phenyl)-2,2,2-trifluoro-ethylamino]-benzyl}-pyrrolidine-3-carboxylic acid]

IC50 [nM] | SMILES
4.7 | CCC(c1cccc(N[C@H](CC)c2ccc(Cl)c(C)c2)c1)N1CC(C(=O)O)C1 (stereo partly drawn) [Example 13, 1-(1-{3-[(R)-1-(4-Chloro-3-methyl-phenyl)-propylamino]-phenyl}-propyl)-azetidine-3-carboxylic acid]
0.5 | CC[C@@H](Nc1cccc(C(C)N2CC(C(=O)O)C2)c1)c1ccc(Cl)c(C)c1 (stereo partly drawn) [Example 6, 1-(1-{3-[(R)-1-(4-Chloro-3-methyl-phenyl)-propylamino]-phenyl}-ethyl)-azetidine-3-carboxylic acid]
6.7 | Cc1ccc(N[C@H](C)c2cc(C)c(Cl)c(C)c2)cc1CN1CC[C@@H](C(=O)O)C1 [Example 44, (R)-1-{5-[(R)-1-(4-Chloro-3,5-dimethyl-phenyl)-ethylamino]-2-methyl-benzyl}-pyrrolidine-3-carboxylic acid]
0.2 | CCC(Nc1ccc(C)c(CN2CC(C(=O)O)C2)c1)c1ccc(Cl)c(C)c1 (centres unmarked) [Example 4, 1-{5-[1-(4-Chloro-3-methyl-phenyl)-propylamino]-2-methyl-benzyl}-azetidine-3-carboxylic acid]
1.1 | Cc1cc([C@H](Nc2ccc(Cl)c(CN3CC(C(=O)O)C3)c2)C(C)C)ccc1Cl [Example 63, 1-{2-Chloro-5-[(R)-1-(4-chloro-3-methyl-phenyl)-2-methyl-propylamino]-benzyl}-azetidine-3-carboxylic acid]
0.8 | CC[C@@H](Nc1ccc(C)c(CN2CC(C(=O)O)C2)c1)c1ccc(Cl)c(C)c1 [Example 22, 1-{5-[(R)-1-(4-Chloro-3-methyl-phenyl)-propylamino]-2-methyl-benzyl}-azetidine-3-carboxylic acid]
0.7 | CC[C@@H](Nc1cc(CN2CCC(C)(C(=O)O)C2)c(Cl)cn1)c1ccc(Cl)c(C)c1 (single isomer, unassigned) [Example 87]
2.9 | Cc1cc([C@H](Nc2ccc(C)c(CN3CCC(C)(C(=O)O)C3)c2)C(F)(F)F)ccc1Cl (stereo partly drawn) [Example 83, 1-{5-[(S)-1-(4-Chloro-3-methyl-phenyl)-2,2,2-trifluoro-ethylamino]-2-methyl-benzyl}-3-methyl-pyrrolidine-3-carboxylic acid]
2.5 | CCc1ccc(N[C@H](CC)c2ccc(Cl)c(C)c2)cc1CN1CC(C(=O)O)C1 [Example 37, 1-{5-[(R)-1-(4-Chloro-3-methyl-phenyl)-propylamino]-2-ethyl-benzyl}-azetidine-3-carboxylic acid]
0.4 | Cc1cc([C@H](Nc2ccc(C)c(CNCCC(=O)O)c2C)C(F)(F)F)ccc1Cl [Example 40, 3-{3-[(S)-1-(4-Chloro-3-methyl-phenyl)-2,2,2-trifluoro-ethylamino]-2,6-dimethyl-benzylamino}-propionic acid]
3.5 | CCC(Nc1cccc(CN2CC(C(=O)O)C2)c1)c1ccc(Cl)c(C)c1 (centres unmarked) [Example 2, 1-{3-[1-(4-Chloro-3-methyl-phenyl)-propylamino]-benzyl}-azetidine-3-carboxylic acid]
3.3 | CC[C@@H](Nc1cccc(CN2CC[C@@H](C(=O)O)C2)c1F)c1ccc(Cl)c(C)c1 [Example 25, (R)-1-{3-[(R)-1-(4-Chloro-3-methyl-phenyl)-propylamino]-2-fluoro-benzyl}-pyrrolidine-3-carboxylic acid]
1.6 | Cc1cc(C(Nc2cccc(CN3CC(C(=O)O)C3)c2)C(C)C)ccc1Cl (centres unmarked) [Example 17, 1-{3-[1-(4-Chloro-3-methyl-phenyl)-2-methyl-propylamino]-benzyl}-azetidine-3-carboxylic acid]
1.8 | CCc1ccc(N[C@@H](c2ccc(Cl)c(C)c2)C(F)(F)F)cc1CN1CC(C(=O)O)C1 [Example 35, 1-{5-[(S)-1-(4-Chloro-3-methyl-phenyl)-2,22-trifluoro-ethylamino]-2-ethyl-benzyl}-azetidine-3-carboxylic acid]
1.9 | CC[C@@H](Nc1cccc(CN2CC(C(=O)O)C2)c1F)c1ccc(Cl)c(C)c1 [Example 24, 1-{3-[(R)-1-(4-Chloro-3-methyl-phenyl)-propylamino]-2-fluoro-benzyl}-azetidine-3-carboxylic acid]
3.9 | CC[C@@H](Nc1ccc(C)c(CNC[C@H](C)C(=O)O)c1)c1cc(C)c(Cl)c(C)c1 [Example 81, (S)-3-{5-[(R)-1-(4-Chloro-3,5-dimethyl-phenyl)-propylamino]-2-methyl-benzylamino}-2-methyl-propionic acid]
